Assay results published in US7138361B2, “Herbicidal heterocycles” (E. I. du Pont de Nemours and Company, priority 2000, dated 2006).

What was measured:
Type in all cases: in vivo
Sunflower = assay: Test C preemergence; conditions: Rate 125 g/ha, scale 0 to 100, 0 no effect, 100 complete control
Nightshade = assay: Test C preemergence; conditions: Rate 250 g/ha, visual evaluation after 12 to 14 days
[1] = test system: morning glory (Ipomoea hederacea); assay: Test B postemergence; conditions: 13 to 15 days
Summary of the method: (§1)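 Preemergence: seeds planted and treated with test chemicals in non-phytotoxic solvent with surfactant; postemergence on plants 2–18 cm (1- to 4-leaf stage). Kept in greenhouse 13–15 days, then visually rated against controls on a 0 (no effect) to 100 (complete control) scale.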

[2] = test system: pigweed (Amaranthus retroflexus); assay: Test B postemergence; conditions: 13 to 15 days
Summary of the method: as §1

wild oat (Avena fatua) = assay: Test B postemergence; conditions: 13 to 15 days
Summary of the method: as §1

[3] = test system: giant foxtail (Setaria faberii); assay: Test B postemergence; conditions: 13 to 15 days
Summary of the method: as §1

[4] = test system: barnyardgrass (Echinochloa crus-galli); assay: Test B postemergence; conditions: 13 to 15 days
Summary of the method: as §1

[5] = test system: crabgrass (Digitaria sanguinalis); assay: Test B postemergence; conditions: 13 to 15 days
Summary of the method: as §1

[6] = test system: velvetleaf (Abutilon theophrasti); assay: Test B postemergence; conditions: 13 to 15 days
Summary of the method: as §1

[7] = test system: lambsquarters (Chenopodium album); assay: Test B postemergence; conditions: 13 to 15 days
Summary of the method: as §1

corn (Zea mays) [8] = assay: Test B postemergence; conditions: 13 to 15 days
Summary of the method: as §1

[9] = test system: wheat (Triticum aestivum); assay: Test B postemergence; conditions: 13 to 15 days
Summary of the method: as §1

[10] = test system: Surinam grass (Brachiaria decumbens); assay: Test B postemergence; conditions: 13 to 15 days
Summary of the method: as §1

[11] = test system: blackgrass (Alopecurus myosuroides); assay: Test B postemergence; conditions: 13 to 15 days
Summary of the method: as §1

[12] = test system: cocklebur (Xanthium strumarium); assay: Test B postemergence; conditions: 13 to 15 days
Summary of the method: as §1

[13] = test system: morning glory (Ipomoea hederacea); assay: Test B preemergence; conditions: scale 0 to 100, 0 no effect, 100 complete control
Summary of the method: as §1

[14] = test system: pigweed (Amaranthus retroflexus); assay: Test B preemergence; conditions: scale 0 to 100, 0 no effect, 100 complete control
Summary of the method: as §1

rice (Oryza saliva) = assay: Test B preemergence; conditions: scale 0 to 100, 0 no effect, 100 complete control
Summary of the method: as §1

[15] = test system: giant foxtail (Setaria faberii); assay: Test B preemergence; conditions: scale 0 to 100, 0 no effect, 100 complete control
Summary of the method: as §1

[16] = test system: barnyardgrass (Echinochloa crus-galli); assay: Test B preemergence; conditions: scale 0 to 100, 0 no effect, 100 complete control
Summary of the method: as §1

[17] = test system: crabgrass (Digitaria sanguinalis); assay: Test B preemergence; conditions: scale 0 to 100, 0 no effect, 100 complete control
Summary of the method: as §1

[18] = test system: velvetleaf (Abutilon theophrasti); assay: Test B preemergence; conditions: scale 0 to 100, 0 no effect, 100 complete control
Summary of the method: as §1

[19] = test system: lambsquarters (Chenopodium album); assay: Test B preemergence; conditions: scale 0 to 100, 0 no effect, 100 complete control
Summary of the method: as §1

corn (Zea mays) [20] = assay: Test B preemergence; conditions: scale 0 to 100, 0 no effect, 100 complete control
Summary of the method: as §1

[21] = test system: Surinam grass (Brachiaria decumbens); assay: Test B preemergence; conditions: scale 0 to 100, 0 no effect, 100 complete control
Summary of the method: as §1

[22] = test system: cocklebur (Xanthium strumarium); assay: Test B preemergence; conditions: scale 0 to 100, 0 no effect, 100 complete control
Summary of the method: as §1

[23] = Rate 125 g/ha, scale 0 (no effect) to 100 (complete control)
[24] = Rate 500 g/ha, scale 0 to 100, 0 is no effect, 100 is complete control

For `O=C1C(n2ccc(C3CC3)n2)CCN1c1cccc(C(F)(F)F)c1` (stereo not shown) [Compound 8], the “Plant response rating, Sunflower” value (Sunflower) was 0, the “Plant response rating (0 to 100), Nightshade” value (Nightshade) was 0 and the “Plant response rating, Morningglory” value [1, 23] was 0. For the same compound, the “Plant response rating, Morningglory” value [1, 24] was 0, the “Plant response rating, Pigweed” value [2, 23] was 0 and the “Plant response rating, Pigweed” value [2, 24] was 10. The “Plant response rating, Wild Oat” value (wild oat (Avena fatua); [23]) was 0, the “Plant response rating, Wild Oat” value (wild oat (Avena fatua); [24]) was 0 and the “Plant response rating, Foxtail, Giant” value [3, 23] was 0. The “Plant response rating, Foxtail, Giant” value [3, 24] was 0, the “Plant response rating, Barnyardgrass” value [4, 23] was 0 and the “Plant response rating, Barnyardgrass” value [4, 24] was 0. For the same compound, the “Plant response rating, Crabgrass” value [5, 23] was 0, the “Plant response rating, Crabgrass” value [5, 24] was 0 and the “Plant response rating, Velvetleaf” value [6, 23] was 0. For the same compound, the “Plant response rating, Velvetleaf” value [6, 24] was 0, the “Plant response rating, Lambsquarters” value [7, 23] was 30 and the “Plant response rating, Lambsquarters” value [7, 24] was 50. For the same compound, the “Plant response rating, Corn” value (corn (Zea mays) [8]; [23]) was 0, the “Plant response rating, Corn” value (corn (Zea mays) [8]; [24]) was 0 and the “Plant response rating, Wheat” value [9, 23] was 0. For the same compound, the “Plant response rating, Wheat” value [9, 24] was 0, the “Plant response rating, Surinam grass” value [10, 23] was 0 and the “Plant response rating, Surinam grass” value [10, 24] was 0. For the same compound, the “Plant response rating, Blackgrass” value [11, 23] was 0, the “Plant response rating, Blackgrass” value [11, 24] was 0 and the “Plant response rating, Cocklebur” value [12, 23] was 0. The “Plant response rating, Cocklebur” value [12, 24] was 10, the “Plant response rating, Morningglory” value ([13]; Preemergence, Rate 500 g/ha) was 0 and the “Plant response rating, Morningglory” value ([13]; preemergence, Rate 125 g/ha) was 0. The “Plant response rating, Pigweed” value ([14]; Preemergence, Rate 500 g/ha) was 100, the “Plant response rating, Pigweed” value ([14]; preemergence, Rate 125 g/ha) was 20 and the “Plant response rating, Rice” value (rice (Oryza saliva); Preemergence, Rate 500 g/ha) was 0. For the same compound, the “Plant response rating, Rice” value (rice (Oryza saliva); preemergence, Rate 125 g/ha) was 0, the “Plant response rating, Foxtail, Giant” value ([15]; Preemergence, Rate 500 g/ha) was 90 and the “Plant response rating, Foxtail, Giant” value ([15]; preemergence, Rate 125 g/ha) was 40. For the same compound, the “Plant response rating, Barnyardgrass” value ([16]; Preemergence, Rate 500 g/ha) was 70, the “Plant response rating, Barnyardgrass” value ([16]; preemergence, Rate 125 g/ha) was 0 and the “Plant response rating, Crabgrass” value ([17]; Preemergence, Rate 500 g/ha) was 100. The “Plant response rating, Crabgrass” value ([17]; preemergence, Rate 125 g/ha) was 30, the “Plant response rating, Velvetleaf” value ([18]; Preemergence, Rate 500 g/ha) was 0 and the “Plant response rating, Velvetleaf” value ([18]; preemergence, Rate 125 g/ha) was 0. The “Plant response rating, Lambsquarters” value ([19]; Preemergence, Rate 500 g/ha) was 100, the “Plant response rating, Lambsquarters” value ([19]; preemergence, Rate 125 g/ha) was 0 and the “Plant response rating, Corn” value (corn (Zea mays) [20]; Preemergence, Rate 500 g/ha) was 0. For the same compound, the “Plant response rating, Corn” value (corn (Zea mays) [20]; preemergence, Rate 125 g/ha) was 0, the “Plant response rating, Surinam grass” value ([21]; Preemergence, Rate 500 g/ha) was 70 and the “Plant response rating, Surinam grass” value ([21]; preemergence, Rate 125 g/ha) was 20. The “Plant response rating, Cocklebur” value ([22]; Preemergence, Rate 500 g/ha) was 0 and the “Plant response rating, Cocklebur” value ([22]; preemergence, Rate 125 g/ha) was 0.

In the case of `CCC(C)c1ccn(C2SCN(c3cccc(C(F)(F)F)c3)C2=O)n1` (stereo not shown) [Compound 20], the “Plant response rating, Sunflower” value (Sunflower) is reported as 40, the “Plant response rating (0 to 100), Nightshade” value (Nightshade) is reported as 90 and the “Plant response rating, Morningglory” value [1, 23] is reported as 60. The “Plant response rating, Morningglory” value [1, 24] was 60, the “Plant response rating, Pigweed” value [2, 23] was 90 and the “Plant response rating, Pigweed” value [2, 24] was 90. For the same compound, the “Plant response rating, Wild Oat” value (wild oat (Avena fatua); [23]) was 0, the “Plant response rating, Wild Oat” value (wild oat (Avena fatua); [24]) was 0 and the “Plant response rating, Foxtail, Giant” value [3, 23] was 50. For the same compound, the “Plant response rating, Foxtail, Giant” value [3, 24] was 90, the “Plant response rating, Barnyardgrass” value [4, 23] was 60 and the “Plant response rating, Barnyardgrass” value [4, 24] was 100. For the same compound, the “Plant response rating, Crabgrass” value [5, 23] was 20, the “Plant response rating, Crabgrass” value [5, 24] was 80 and the “Plant response rating, Velvetleaf” value [6, 23] was 10. For the same compound, the “Plant response rating, Velvetleaf” value [6, 24] was 20, the “Plant response rating, Lambsquarters” value [7, 23] was 90 and the “Plant response rating, Lambsquarters” value [7, 24] was 90. The “Plant response rating, Corn” value (corn (Zea mays) [8]; [23]) was 0, the “Plant response rating, Corn” value (corn (Zea mays) [8]; [24]) was 20 and the “Plant response rating, Wheat” value [9, 23] was 0. The “Plant response rating, Wheat” value [9, 24] was 0, the “Plant response rating, Surinam grass” value [10, 23] was 0 and the “Plant response rating, Surinam grass” value [10, 24] was 0. For the same compound, the “Plant response rating, Blackgrass” value [11, 23] was 0, the “Plant response rating, Blackgrass” value [11, 24] was 0 and the “Plant response rating, Cocklebur” value [12, 23] was 80. For the same compound, the “Plant response rating, Cocklebur” value [12, 24] was 90, the “Plant response rating, Morningglory” value ([13]; Preemergence, Rate 500 g/ha) was 0 and the “Plant response rating, Morningglory” value ([13]; preemergence, Rate 125 g/ha) was 0. For the same compound, the “Plant response rating, Pigweed” value ([14]; Preemergence, Rate 500 g/ha) was 100, the “Plant response rating, Pigweed” value ([14]; preemergence, Rate 125 g/ha) was 0 and the “Plant response rating, Rice” value (rice (Oryza saliva); Preemergence, Rate 500 g/ha) was 0. The “Plant response rating, Rice” value (rice (Oryza saliva); preemergence, Rate 125 g/ha) was 0, the “Plant response rating, Foxtail, Giant” value ([15]; Preemergence, Rate 500 g/ha) was 100 and the “Plant response rating, Foxtail, Giant” value ([15]; preemergence, Rate 125 g/ha) was 70. The “Plant response rating, Barnyardgrass” value ([16]; Preemergence, Rate 500 g/ha) was 100, the “Plant response rating, Barnyardgrass” value ([16]; preemergence, Rate 125 g/ha) was 0 and the “Plant response rating, Crabgrass” value ([17]; preemergence, Rate 125 g/ha) was 0. For the same compound, the “Plant response rating, Velvetleaf” value ([18]; Preemergence, Rate 500 g/ha) was 0, the “Plant response rating, Velvetleaf” value ([18]; preemergence, Rate 125 g/ha) was 0 and the “Plant response rating, Corn” value (corn (Zea mays) [20]; Preemergence, Rate 500 g/ha) was 0. The “Plant response rating, Corn” value (corn (Zea mays) [20]; preemergence, Rate 125 g/ha) was 0, the “Plant response rating, Surinam grass” value ([21]; Preemergence, Rate 500 g/ha) was 0 and the “Plant response rating, Surinam grass” value ([21]; preemergence, Rate 125 g/ha) was 0. For the same compound, the “Plant response rating, Cocklebur” value ([22]; Preemergence, Rate 500 g/ha) was 0 and the “Plant response rating, Cocklebur” value ([22]; preemergence, Rate 125 g/ha) was 0.
